SMILES strings stand for the structures.

The assay has as its system Phakopsora pachyrhizi. The assay is described as follows: Asian Soybean Rust (PHAKPA) disease control. Particulars: 25 ppm. The assay is classed as in vivo. How it is done:
Example H: Evaluation of Fungicidal Activity: Asian Soybean Rust (Phakopsora pachyrhizi; Bayer Code […]) Technical grades of materials were dissolved in acetone, which were then mixed with nine volumes of water containing 0.011% Tween 20. The fungicide solutions were applied onto soybean seedlings using an automated booth sprayer to run-off. All sprayed plants were allowed to air dry prior to further handling. Soybean plants (variety Williams 82) were grown in soil-less Metro mix, with one plant per pot. Two weeks old seedlings were used for testing. Plants were inoculated either 3 days prior to or 1 day after fungicide treatments. Plants were incubated for 24 h in a dark dew room at 22° C. and 100% relative humidity then transferred to a growth room at 23° C. for disease to develop. Disease severity was assessed on the sprayed leaves.

`CCC[C@H]1OCC[C@H](NC(=O)c2nccc(OC)c2OCOC(C)=O)C(=O)O[C@@H](C)[C@@H]1Cc1ccccc1` [Compound 17]: under “1 Day Protectant”, the “PHAKPA disease control, 1DP” value is reported as “A (>70)”. For the same compound, the “PHAKPA disease control, 3DC” value (3 Day Curative) is given as “A (>70)”.

Values taken from US9686984B2, “Macrocyclic picolinamides as fungicides” (DOW AGROSCIENCES LLC, priority 2014, dated 2017).
